Data reported in patent US8283361B2 (AstraZeneca AB, priority 2008, dated 2012).
Counter-ions that a name gives are not always drawn.

Each compound was assayed against S. aureus GyrB ATPase (Staphylococcus aureus, UniProt P0A0K8) (assay: biochemical). Settings: compound at 1 μM; one value per test if tested more than once; read-out: % Inhibition of S. aureus GyrB ATPase.
How it was run: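 IC50 values derive from 10-point titrations of compound (in DMSO). Phosphate formed from 250 μM ATP was quantified by acidic molybdate/malachite green after quenching.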

Sequence of S. aureus GyrB ATPase (P0A0K8 whole entry): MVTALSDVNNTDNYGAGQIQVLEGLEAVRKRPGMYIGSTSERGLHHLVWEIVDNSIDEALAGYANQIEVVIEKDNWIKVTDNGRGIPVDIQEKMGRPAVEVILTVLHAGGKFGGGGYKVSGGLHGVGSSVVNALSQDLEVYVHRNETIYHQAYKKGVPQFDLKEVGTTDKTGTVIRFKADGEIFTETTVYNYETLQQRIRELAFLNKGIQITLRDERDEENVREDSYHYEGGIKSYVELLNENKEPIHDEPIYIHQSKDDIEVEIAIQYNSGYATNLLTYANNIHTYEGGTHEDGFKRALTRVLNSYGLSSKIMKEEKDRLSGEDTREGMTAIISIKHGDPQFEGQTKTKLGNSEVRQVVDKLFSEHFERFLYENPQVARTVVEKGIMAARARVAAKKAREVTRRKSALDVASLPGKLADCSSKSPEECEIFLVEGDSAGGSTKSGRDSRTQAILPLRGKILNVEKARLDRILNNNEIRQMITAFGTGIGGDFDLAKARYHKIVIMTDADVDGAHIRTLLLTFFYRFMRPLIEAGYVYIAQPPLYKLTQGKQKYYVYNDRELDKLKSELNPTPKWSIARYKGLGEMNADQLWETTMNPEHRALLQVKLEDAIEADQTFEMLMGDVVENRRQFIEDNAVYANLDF
Sequence of S. aureus GyrB ATPase (P0AES4 whole entry, further chain): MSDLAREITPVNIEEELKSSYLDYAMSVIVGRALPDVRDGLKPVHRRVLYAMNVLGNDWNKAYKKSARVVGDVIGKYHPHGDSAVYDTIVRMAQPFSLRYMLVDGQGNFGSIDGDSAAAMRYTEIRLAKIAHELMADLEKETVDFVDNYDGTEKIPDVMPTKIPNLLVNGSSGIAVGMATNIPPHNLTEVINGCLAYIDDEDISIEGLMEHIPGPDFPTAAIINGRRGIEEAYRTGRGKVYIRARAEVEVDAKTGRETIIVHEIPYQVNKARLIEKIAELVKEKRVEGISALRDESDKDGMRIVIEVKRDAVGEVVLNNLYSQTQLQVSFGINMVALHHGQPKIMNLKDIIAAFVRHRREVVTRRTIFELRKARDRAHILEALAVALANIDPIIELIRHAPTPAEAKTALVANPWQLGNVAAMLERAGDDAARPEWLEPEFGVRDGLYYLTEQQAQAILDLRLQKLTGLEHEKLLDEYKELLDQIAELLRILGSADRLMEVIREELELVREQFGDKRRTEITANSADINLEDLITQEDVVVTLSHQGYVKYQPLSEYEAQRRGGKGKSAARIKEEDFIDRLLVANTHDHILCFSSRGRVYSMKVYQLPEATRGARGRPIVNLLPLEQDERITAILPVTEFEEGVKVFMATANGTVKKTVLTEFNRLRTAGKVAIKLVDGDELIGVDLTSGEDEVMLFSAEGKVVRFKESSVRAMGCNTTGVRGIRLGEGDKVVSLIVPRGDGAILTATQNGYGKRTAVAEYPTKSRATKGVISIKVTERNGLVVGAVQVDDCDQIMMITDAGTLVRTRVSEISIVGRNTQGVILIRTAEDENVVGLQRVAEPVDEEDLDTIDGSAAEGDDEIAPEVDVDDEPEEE

`CCNC(=O)Nc1cc(-c2nc(C(F)(F)F)cs2)c(-c2ccc3c(c2)c(=O)c(C(=O)O)cn3C2(CO)CCOCC2)cn1` [Example 122, 6-(6-(3-ethylureido)-4-(4-(trifluoromethyl)thiazol-2-yl)pyridin-3-yl)-1-(4-(hydroxymethyl)tetrahydro-2H-pyran-4-yl)-4-oxo-1,4-dihydroquinoline-3-carboxylic acid] and `CCNC(=O)Nc1cc(-c2nc(C(F)(F)F)cs2)c(-c2ccc3c(c2)c(=O)c(C(=O)O)cn3CC2CCCCN2)cn1` (centres unmarked) [Example 123, 6-(6-(3-ethylureido)-4-(4-(trifluoromethyl)thiazol-2-yl)pyridin-3-yl)-4-oxo-1-(piperidin-2-ylmethyl)-1,4-dihydroquinoline-3-carboxylic acid] are the same in inhibition at 1 µM: 95% for the first, 95% for the second.

Going from `CCNC(=O)Nc1cc(-c2nc(C(F)(F)F)cs2)c(-c2ccc3c(c2)c(=O)c(C(=O)O)cn3Cc2ccncc2)cn1` [Example 124, 6-(6-(3-ethylureido)-4-(4-(trifluoromethyl)thiazol-2-yl)pyridin-3-yl)-4-oxo-1-(pyridin-4-ylmethyl)-1,4-dihydroquinoline-3-carboxylic acid] to `CCNC(=O)Nc1cc(-c2nc(C(F)(F)F)cs2)c(-c2ccc3c(c2)c(=O)c(C(=O)O)cn3Cc2cn(C)cn2)cn1` [Example 125, 6-(6-(3-ethylureido)-4-(4-(trifluoromethyl)thiazol-2-yl)pyridin-3-yl)-1-((1-methyl-1H-imidazol-4-yl)methyl)-4-oxo-1,4-dihydroquinoline-3-carboxylic acid], the inhibition at 1 µM rises from 87% to 93%.

First: CCNC(=O)Nc1cc(-c2nc(C(F)(F)F)cs2)c(-c2ccc3c(c2)c(=O)c(C(=O)O)cn3C(C)CN(C)C)cn1 (centres unmarked) [Example 126, 1-(1-(dimethylamino)propan-2-yl)-6-(6-(3-ethylureido)-4-(4-(trifluoromethyl)thiazol-2-yl)pyridin-3-yl)-4-oxo-1,4-dihydroquinoline-3-carboxylic acid]
Second: CCNC(=O)Nc1cc(-c2nc(C(F)(F)F)cs2)c(-c2ccc3c(c2)c(=O)c(C(=O)NC)cn3[C@H](C(=O)O)C(C)C)cn1 [Example 130, (S)-2-(6-(6-(3-ethylureido)-4-(4-(trifluoromethyl)thiazol-2-yl)pyridin-3-yl)-3-(methylcarbamoyl)-4-oxoquinolin-1(4H)-yl)-3-methylbutanoic acid]
The inhibition at 1 µM of the first is higher: 117% for the first, 101% for the second.

First: CCNC(=O)Nc1cc(-c2nc(C(F)(F)F)cs2)c(-c2ccc3c(c2)c(=O)c(C(=O)O)cn3CC2CCCCN2C)cn1 (centres unmarked) [Example 127, 6-(6-(3-ethylureido)-4-(4-(trifluoromethyl)thiazol-2-yl)pyridin-3-yl)-1-((1-methylpiperidin-2-yl)methyl)-4-oxo-1,4-dihydroquinoline-3-carboxylic acid, formic acid salt]
Second: CCNC(=O)Nc1cc(-c2nc(C(F)(F)F)cs2)c(-c2ccc3c(c2)c(=O)c(C(=O)NCCCO)cn3C2CC2)cn1 [Example 147, 1-cyclopropyl-6-(6-(3-ethylureido)-4-(4-(trifluoromethyl)thiazol-2-yl)pyridin-3-yl)-N-(3-hydroxypropyl)-4-oxo-1,4-dihydroquinoline-3-carboxamide]
The inhibition at 1 µM of the first is higher: 117% for the first, 102% for the second.

First: CCNC(=O)Nc1cc(-c2nc(C(F)(F)F)cs2)c(-c2ccc3c(c2)c(=O)c(C(=O)NC2CCOCC2)cn3C(COC)COC)cn1 [Example 128, 1-(1,3-dimethoxypropan-2-yl)-6-(6-(3-ethylureido)-4-(4-(trifluoromethyl)thiazol-2-yl)pyridin-3-yl)-4-oxo-N-(tetrahydro-2H-pyran-4-yl)-1,4-dihydroquinoline-3-carboxamide]
Second: CCNC(=O)Nc1cc(-c2nc(C(F)(F)F)cs2)c(-c2ccc3c(c2)c(=O)c(C(=O)NC)cn3C(COC)COC)cn1 [Example 129, 1-(1,3-dimethoxypropan-2-yl)-6-(6-(3-ethylureido)-4-(4-(trifluoromethyl)thiazol-2-yl)pyridin-3-yl)-N-methyl-4-oxo-1,4-dihydroquinoline-3-carboxamide]
The inhibition at 1 µM of the first is lower: 92% for the first, 93% for the second.

`CCNC(=O)Nc1cc(-c2nc(C(F)(F)F)cs2)c(-c2ccc3c(c2)c(=O)c(C(=O)N2CCNCC2)cn3C(COC)COC)cn1` [Example 140, 1-{5-[1-(1,3-dimethoxypropan-2-yl)-4-oxo-3-(piperazin-1-ylcarbonyl)-1,4-dihydroquinolin-6-yl]-4-[4-(trifluoromethyl)-1,3-thiazol-2-yl]pyridin-2-yl}-3-ethylurea] and `CCNC(=O)Nc1cc(-c2nc(C(F)(F)F)cs2)c(-c2ccc3c(c2)c(=O)c(C(=O)N2CCN(C)CC2)cn3C(COC)COC)cn1` [Example 143, 1-(5-{1-(1,3-dimethoxypropan-2-yl)-3-[(4-methylpiperazin-1-yl)carbonyl]-4-oxo-1,4-dihydroquinolin-6-yl}-4-[4-(trifluoromethyl)-1,3-thiazol-2-yl]pyridin-2-yl)-3-ethylurea] are the same in inhibition at 1 µM: 95% for the first, 95% for the second.

Going from `CCNC(=O)Nc1cc(-c2nc(C(F)(F)F)cs2)c(-c2ccc3c(c2)c(=O)c(C(=O)N2CCN(CCO)CC2)cn3C(COC)COC)cn1` [Example 141, 1-{5-[1-(1,3-dimethoxypropan-2-yl)-3-{[4-(2-hydroxyethyl)piperazin-1-yl]carbonyl}-4-oxo-1,4-dihydroquinolin-6-yl]-4-[4-(trifluoromethyl)-1,3-thiazol-2-yl]pyridin-2-yl}-3-ethylurea] to `CCNC(=O)Nc1cc(-c2nc(C(F)(F)F)cs2)c(-c2ccc3c(c2)c(=O)c(C(=O)N2CCN(C(C)=O)CC2)cn3C(COC)COC)cn1` [Example 144, 1-(5-{3-[(4-acetylpiperazin-1-yl)carbonyl]-1-(1,3-dimethoxypropan-2-yl)-4-oxo-1,4-dihydroquinolin-6-yl}-4-[4-(trifluoromethyl)-1,3-thiazol-2-yl]pyridin-2-yl)-3-ethylurea], the inhibition at 1 µM falls from 97% to 94%.

Compared with `CCNC(=O)Nc1cc(-c2nc(C(F)(F)F)cs2)c(-c2ccc3c(c2)c(=O)c(C(=O)N2CCN(S(=O)(=O)N(C)C)CC2)cn3C(COC)COC)cn1` [Example 142, 4-{[1-(1,3-dimethoxypropan-2-yl)-6-{6-[(ethylcarbamoyl)amino]-4-[4-(trifluoromethyl)-1,3-thiazol-2-yl]pyridin-3-yl}-4-oxo-1,4-dihydroquinolin-3-yl]carbonyl}-N,N-dimethylpiperazine-1-sulfonamide], `CCNC(=O)Nc1cc(-c2nc(C(F)(F)F)cs2)c(-c2ccc3c(c2)c(=O)c(C(=O)N2CCN(S(C)(=O)=O)CC2)cn3C(COC)COC)cn1` [Example 145, 1-{5-[1-(1,3-dimethoxypropan-2-yl)-3-{[4-(methylsulfonyl)piperazin-1-yl]carbonyl}-4-oxo-1,4-dihydroquinolin-6-yl]-4-[4-(trifluoromethyl)-1,3-thiazol-2-yl]pyridin-2-yl}-3-ethylurea] is lower in inhibition at 1 µM: 97% for the first, 92% for the second.

`CCNC(=O)Nc1cc(-c2nc(C(F)(F)F)cs2)c(-c2ccc3c(c2)c(=O)c(C(=O)NCCO)cn3C(COC)COC)cn1` [Example 148, 1-(1,3-dimethoxypropan-2-yl)-6-(6-(3-ethylureido)-4-(4-(trifluoromethyl)thiazol-2-yl)pyridin-3-yl)-N-(2-hydroxyethyl)-4-oxo-1,4-dihydroquinoline-3-carboxamide] gave an inhibition at 1 µM of 93%.
